One data set concerns S180-bearing mice. Briefly: In vivo antitumor activity in S180 implanted mice. The settings on record: 25 mg/kg oral daily, 12 days. The method, then: The animal experiments were carried out according to the National Institute of Health Guide for the Care and Use of Laboratory Animals. And the use of experimental animals was approved by the Animal Ethics Committee of Shenyang Pharmaceutical University. Male Kunming mice, were housed in separate cages under standard conditions (20–24 °C), relative humidity (55% ± 5%) and a 12 h light/12 h dark cycle, and allowed to acclimatize for 3 days prior to the start of experiment. Cultured S180 cells were harvested and washed with sterilized PBS (pH 7.2) three times and resuspended at a density of 6 × 10^6 cells/ml. Mice received subcutaneous implants of 0.2 mL/mouse on the right flank by means of hypodermic injection. Then the mice were divided randomly into 5 groups, including model, positive control and treatment groups with 10 mice in each group after inoculation for 24 h. […] Both groups received oral administrations via an intubation needle every day. […] The weight of the mice was recorded every day throughout the experiment. Finally, the mice were sacrificed by cervical dislocation just 2 h after the last administration. Then the tumor and spleen tissues were harvested and weighed immediately. After that the in vivo tumor inhibition ratio was calculated as: Inhibition ratio (%) = 100((A−B)/A), in which A represents the average tumor weight of the control group and B is recorded as the tumor weight of the administration group. Then, the spleen index was recorded using the following formula:
Spleen index = the final weight of spleen (mg)/the final average body weight (g) without tumor.

A further data set concerns H292 cells. Briefly: MTT cytotoxicity assay, H292 cells. In kind it is cell-based, human. The method, then:
(§1) The cytotoxicities of the tested flavonoids were assayed in ten human lung cancer cell lines (A549, H226, H358, H522, H292, H1944, H460, H1792, SW1573, and Calu-1) using MTT reduction assay. Cisplatin (DDP) was selected as a positive control. Compounds 1–37 were dissolved in DMSO to obtain a clear solution of 1 M, which was diluted to 400 mM, 200 mM, 100 mM, 75 mM, 50 mM, 37.5 mM, 25 mM, 10 mM and 1 mM respectively as stock solutions. The DMSO concentration in the medium was kept below 0.10%. Moreover, the stability of tested compounds in experimental buffer was confirmed at 24 h and 48 h respectively by means of HPLC analysis. Then the human lung cancer cells were placed in 96-well culture plates (5 × 10^4 cells/well) and incubated for 24 h. Then, the cells were pretreated with different concentrations of test samples (gradient concentrations 1.0, 10.0, 25.0, 37.5, 50, 75, 100, 200, 400, 1000 μM for compounds 1–37 and DDP) for 48 h. And cell growth was measured by MTT assays. The cytotoxicities against the lung cancer cells were determined systematically and expressed as IC50 value.

The test system of the next data set is H1944. The experiment in a line: MTT cytotoxicity assay, H1944 cells. The conditions noted are these: DDP 10 μM. In kind it is cell-based, human. The method, then: as §1
(In general: Tetrazolium dyes change colour on reduction, which living cells bring about.)

In the next data set the test system is H522. Briefly: MTT cytotoxicity assay, H522 cells. In kind it is cell-based, human. The settings on record: DDP 10 μM. The method, then:
as §1

The next data set concerns H358. The experiment in a line: MTT cytotoxicity assay, H358 cells. In kind it is cell-based, human. The conditions noted are these: DDP 10 μM. The procedure:
as §1

The next data set has as its system Calu-1. Briefly: MTT cytotoxicity assay, Calu-1 cells. In kind it is cell-based, human. The conditions noted are these: DDP 10 μM. The method, then: as §1
Another data set has as its system A549. The experiment in a line: MTT cytotoxicity assay, A549 cells. In kind it is cell-based, human. The settings on record: DDP 10 μM. The method, then: as §1
The subject of a further data set is H226. The experiment in a line: MTT cytotoxicity assay, H226 cells. In kind it is cell-based, human. The conditions noted are these: DDP 10 μM. The procedure:
as §1

The next data set concerns H1792. Briefly: MTT cytotoxicity assay, H1792 cells. The format is cell-based, human. The settings on record: DDP 10 μM. The method, then: as §1
A further data set relates to H460. Briefly: MTT cytotoxicity assay, H460 cells. The format is cell-based, human. The settings on record: DDP 10 μM. The method, then: as §1
The test system of the next data set is SW1573. The experiment in a line: MTT cytotoxicity assay, SW1573 cells. The format is cell-based, human. The settings on record: DDP 10 μM. The procedure:
as §1

Setting [1] is: Homo sapiens, NCI-H292, H292 cells, MTT, 48 h, read-out: IC50.
[2] abbreviates: Homo sapiens, NCI-H292, H292 cells, Table S2, read-out: pIC50 (converted).
[3] abbreviates: Homo sapiens, NCI-H292, H292 cells, MTT, 48 h, Table S2, read-out: IC50.

For orientation: pIC50 means the IC50 on a negative log10 scale, so that one unit is a factor of ten. Low values mean a high IC50, high ones a low IC50.

Read-outs that look alike come from different tables or passages of the source.

Consider `O=P1(N(CCCl)CCCl)NCCCO1` (stereo not shown) [CTX, Cyclophosphamide, reference compound], for which, in the data set on S180-bearing mice, the “Body weight/g After experiment” value was 28.09 ± 0.56 g, the “Body weight/g Before experiment” value amounted to 35.97 ± 0.89 g and the “Inhibitory rate (%)” value came to 80.75%. In the data set with S180-bearing mice (mean ± SE), this molecule came in with a Tumor weight/g of 1.55 ± 0.30 g.
On to `CC1(C)C=Cc2c(ccc3c2O[C@H](c2ccc4c(c2)OCO4)CC3=O)O1` [Compound 37], for which the IC50 in the data set on H292 cells (setting [1]) and in the data set with H292 cells (setting [2]) was 61.5 µM in each case.
As to `COc1c2ccoc2cc2oc(-c3ccccc3)cc(=O)c12` [Compound 20], the IC50 in the data set on H292 cells (setting [3]) and in the data set on H292 cells (setting [2]) was greater than 1000 µM throughout.
With `COc1ccc2c(=O)c(OC)c(-c3ccc4c(c3)OCO4)oc2c1` [Compound 24], the IC50 in the data set on H292 cells (setting [3]) and in the data set with H292 cells (setting [2]) was 394 µM in each case.
On to `COc1ccc2c(=O)c(OC)c(-c3ccc(OC)c(OC)c3)oc2c1` [Compound 25], for which the IC50 in the data set with H292 cells (setting [3]) and with H292 cells (setting [2]) was 1000 µM in each case.
Turning to `COc1ccc(-c2coc3c(O)c(O)ccc3c2=O)cc1O` [Compound 30], the IC50 with H292 cells (setting [3]) and in the data set on H292 cells (setting [2]) was 501 µM in each case.
For genistein [Compound 21], the IC50 in the data set with H292 cells (H292 cells, MTT, 48 h, Table S2, read-out: IC50) was greater than 1000 µM. The pIC50 in the data set with H292 cells (H292 cells, Table S2) is listed as less than 3.000.
For the molecule `COc1ccc(-c2coc3cc(CC=C(C)C)ccc3c2=O)cc1` [Compound 26], the IC50 in the data set on H292 cells (setting [1]) and in the data set with H292 cells (setting [2]) was 294 µM in each case.
For the molecule `O=c1cc(-c2ccccc2)oc2c1cc(O)c1occc12` [Compound 8], the IC50 in the data set with H292 cells (setting [3]) and with H292 cells (setting [2]) was 750 µM throughout.
In the case of `CC1(C)C=Cc2c(ccc(C(=O)/C=C/c3ccc4c(c3)OCO4)c2O)O1` [Compound 35], the IC50 in the data set with H292 cells (setting [1]) and in the data set on H292 cells (setting [2]) was 61.5 µM throughout.
`O=c1c(-c2ccc(O)cc2)coc2cc(O)cc(O)c12` [Compound 28]: the IC50 in the data set on H292 cells (setting [3]) and in the data set on H292 cells (setting [2]) was 631 µM in each case.
For `O=c1cc(-c2ccc(O)cc2)oc2c1ccc1occc12` [Compound 4], the IC50 in the data set with H292 cells (setting [3]) and in the data set with H292 cells (setting [2]) was 705 µM in each case.
For the molecule `O=c1cc(-c2ccc3c(c2)OCO3)oc2c1ccc1occc12` [Compound 6], the IC50 in the data set with H292 cells (setting [3]) and in the data set on H292 cells (setting [2]) was greater than 1000 µM throughout.
With `COc1cc(OC)cc(-c2cc(=O)c3ccc4occc4c3o2)c1` [Compound 15], the IC50 in the data set with H292 cells (setting [1]) and in the data set on H292 cells (setting [2]) was 158 µM each time.
As for `COc1ccc(-c2coc3c(O)c(OC)ccc3c2=O)cc1` [Compound 33], the IC50 in the data set with H292 cells (setting [1]) and with H292 cells (setting [2]) was 216 µM throughout.
Take `COc1cc(O)cc(-c2oc3c(ccc4occc43)c(=O)c2OC)c1` [Compound 19]: the IC50 in the data set on H292 cells (setting [3]) and in the data set with H292 cells (setting [2]) was greater than 1000 µM each time.
Consider `COc1c(-c2ccccc2)oc2c(cc(O)c3occc32)c1=O` [Compound 11, demethylate kanjone], for which the IC50 in the data set on H292 cells (setting [3]) and in the data set on H292 cells (setting [2]) was greater than 1000 µM in each case.
As to `COc1cc(OC)c(Cl)c(-c2cc(=O)c3ccc4occc4c3o2)c1Cl` [Compound 1], the IC50 in the data set with H292 cells (setting [3]) and in the data set with H292 cells (setting [2]) was 490 µM throughout.
`COc1c(-c2ccccc2)oc2c(ccc3occc32)c1=O` [Compound 10]: the IC50 in the data set with H292 cells (setting [3]) and in the data set with H292 cells (setting [2]) was 794 µM each time.
Turning to `COc1ccc(OC)c(-c2cc(=O)c3ccc4occc4c3o2)c1` [Compound 16], the IC50 in the data set with H292 cells (setting [3]) and in the data set on H292 cells (setting [2]) was 374 µM each time.
As for `O=c1c(-c2ccc3c(c2)OCO3)coc2cc(O)ccc12` [Compound 29], the IC50 in the data set with H292 cells (setting [3]) and in the data set on H292 cells (setting [2]) was 1000 µM in each case.
Turning to `O=c1cc(-c2ccccc2)oc2c1c(O)cc1occc12` [Compound 3, kanjone], the IC50 with H292 cells (setting [3]) and in the data set on H292 cells (setting [2]) was greater than 1000 µM throughout.
Take `COc1cc(O)cc(-c2coc3cc(O)ccc3c2=O)c1` [Compound 31]: the IC50 in the data set on H292 cells (setting [3]) and in the data set with H292 cells (setting [2]) was greater than 1000 µM in each case.
In the case of `COc1cc2c(=O)cc(-c3ccccc3)oc2c2ccoc12` [Compound 9, 6-hydroxy,3-methoxyfuro[8,7:4′′,5′′]flavone], the IC50 in the data set with H292 cells (setting [3]) and in the data set on H292 cells (setting [2]) was 975 µM each time.
For the molecule `COc1ccc(-c2coc3cc(O)ccc3c2=O)cc1` [Compound 27], the IC50 in the data set on H292 cells (setting [3]) and in the data set with H292 cells (setting [2]) was greater than 1000 µM each time.
With `COc1ccc(-c2coc3c(OC)c(O)ccc3c2=O)cc1` [Compound 32], the IC50 with H292 cells (setting [3]) and with H292 cells (setting [2]) was 776 µM in each case.
Regarding `COc1c2ccoc2cc2oc(-c3ccc4c(c3)OCO4)cc(=O)c12` [Compound 22], the IC50 in the data set with H292 cells (setting [3]) and in the data set on H292 cells (setting [2]) was greater than 1000 µM each time.
In the case of `N.N.[Cl][Pt][Cl]` [DDP, Cisplatin, reference compound], the “inhibition rate (IR %)” value with H1944 was 40.4%; with H522 it was 69.6%; with H358 it was 81.2%; with Calu-1, 59.1%; in the data set with A549 it was 76.4%; in the data set on H226, 87.4%. Also, the “inhibition rate (IR %)” value stood at 44.6% in the data set on H1792; 91.3% in the data set with H292 cells (H292, DDP 10 μM); 89.1% in the data set on H460; 69.4% with SW1573.
Regarding `COc1ccc(O)cc1-c1oc2c(ccc3occc32)c(=O)c1OC` [Compound 18], the IC50 in the data set on H292 cells (setting [3]) and with H292 cells (setting [2]) was greater than 1000 µM each time.
Take `COc1cccc(-c2cc(=O)c3ccc4occc4c3o2)c1` [Compound 13]: the IC50 with H292 cells (setting [3]) and in the data set with H292 cells (setting [2]) was 615 µM throughout.
Consider `CC1(C)C=Cc2c(ccc3c2O[C@H](c2ccccc2)CC3=O)O1` [Compound 36], for which the IC50 in the data set with H292 cells (setting [1]) and in the data set on H292 cells (setting [2]) was 50 µM each time.
In the case of `COc1c(-c2ccc3c(c2)OCO3)oc2c3c(ccc2c1=O)OC(C)(C)C=C3` [Compound 12, pongapinnol-C], the IC50 in the data set with H292 cells (setting [1]) and in the data set with H292 cells (setting [2]) was 100 µM each time.
`O=c1cc(-c2cccc(O)c2)oc2c1ccc1occc12` [Compound 14, isopongaglabol]: the IC50 in the data set with H292 cells (setting [3]) and in the data set on H292 cells (setting [2]) was 630 µM in each case.

The values above are taken from article PMC5587747, “A natural chalcone induces apoptosis in lung cancer cells: 3D-QSAR, docking and an in vivo/vitro assay” (Scientific Reports, 2017).
